Like-named read-outs stand apart in the source and are kept apart here.
How the values were obtained:
[1] = tested on: HCV genotype 1a (H77 strain) replicon in HUH-7 cells; test: HCV replicon luciferase reporter assay, genotype 1a; assay type: cell-based; settings: Hepatitis C virus, Huh-7, 72 h, 3 days incubation, read-out: LE_1a (EC50, range)
In short: (§1)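 Replicon inhibition for both genotypes was measured as Renilla luciferase signal (EnduRen, 7.5 μM final, 2 h) after 3-day, 37° C exposure of replicon-bearing HUH-7 cells in 4% FCS DMEM, 0.5% DMSO. The 1b construct carries S1179I; the 1a H77 construct carries P1496L and S2204I. Twenty-point, 3-fold dilutions were fitted four-parametrically for EC50, and CC50 was taken from multiplexed Cell Titer-Blue.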

[2] = tested on: HCV genotype 1b (Con1) replicon in HUH-7 cells; test: HCV replicon luciferase reporter assay, genotype 1b; assay type: cell-based; settings: Hepatitis C virus, Huh-7, 72 h, 3 days incubation, read-out: LE_1b (EC50, range)
In short: as §1

[3] = HCV genotype 1a replicon luciferase assay, range class
[4] = HCV genotype 1b replicon luciferase assay, range class
[5] = HCV genotype 1a replicon luciferase
[6] = HCV genotype 1b replicon luciferase

SMILES | EC50 [1, 5] [nM] | EC50 [2, 6] [nM] | further results
COc1ccc2c(O[C@@H]3C[C@H]4C(=O)N[C@]5(C(=O)NS(=O)(=O)C6(CF)CC6)C[C@H]5/C=C\CC[C@@H](C)C[C@@H](C)[C@H](NC(=O)OC(C)(C)C(F)(F)F)C(=O)N4C3)nc(OC)cc2c1 [Compound 1127, 1,1,1-trifluoro-2-methylpropan-2-yl((2R,6S,7R,9R,13aS,14aR,16aS,Z)-2-((3,6-dimethoxyisoquinolin-1-yl)oxy)-14a-(((1-(fluoromethyl)cyclopropyl)sulfonyl)carbamoyl)-7,9-dimethyl-5,16-dioxo-1,2,3,5,6,7,8,9,10,11,13a,14,14a,15,16,16a-hexadecahydrocyclopropa[e]pyrrolo[1,2-a][1,4]diazacyclopentadecin-6-yl)carbamate] |  |  | EC50 [1, 3]: < 5.46 nM; EC50 [2, 4]: < 5.46 nM
CC[C@@H]1C[C@@H](C)CC/C=C\[C@@H]2C[C@@]2(C(=O)NS(=O)(=O)C2CC2)NC(=O)[C@@H]2C[C@@H](Oc3nccc4c5c(ccc34)N(C)CCO5)CN2C(=O)[C@H]1NC(=O)OC(C)(C)C(F)(F)F [Compound 5309, 1,1,1-trifluoro-2-methylpropan-2-yl((2R,6S,7R,9S,13aS,14aR,16aS,Z)-14a-((cyclopropylsulfonyl)carbamoyl)-7-ethyl-9-methyl-2-((4-methyl-3,4-dihydro-2H-[1,4]oxazino[2,3-f]isoquinolin-7-yl)oxy)-5,16-dioxo-1,2,3,5,6,7,8,9,10,11,13a,14,14a,15,16,16a-hexadecahydrocyclopropa[e]pyrrolo[1,2-a][1,4]diazacyclopentadecin-6-yl)carbamate] | 4.82 to 103 | < 5.46 | 
CC[C@@H]1C[C@H](C)CC/C=C\[C@@H]2C[C@@]2(C(=O)NS(=O)(=O)C2CC2)NC(=O)[C@@H]2C[C@@H](Oc3nc4cc(OC(C)C)ccc4nc3C(F)(F)F)CN2C(=O)[C@H]1NC(=O)OC(C)(C)C(F)(F)F [Compound 4338] |  |  | EC50 ([1]; GETYPE1A, HCV genotype 1a replicon luciferase): 1.01 to 5 nM; EC50 ([2]; GETYPE1B, HCV genotype 1b replicon luciferase): 1.01 to 5 nM
CC[C@@H]1C[C@H](C)CC/C=C\[C@@H]2C[C@@]2(C(=O)NS(=O)(=O)C2CC2)NC(=O)[C@@H]2C[C@@H](Oc3ncc(C(N)=O)c4cc(OC)ccc34)CN2C(=O)[C@H]1NC(=O)OC(C)(C)C [Compound 4342, tert-butyl ((2R,6S,7R,9R,13aS,14aR,16aS,Z)-2-((4-carbamoyl-6-methoxyisoquinolin-1-yl)oxy)-14a-((cyclopropylsulfonyl)carbamoyl)-7-ethyl-9-methyl-5,16-dioxo-1,2,3,5,6,7,8,9,10,11,13a,14,14a,15,16,16a-hexadecahydrocyclopropa[e]pyrrolo[1,2-a][1,4]diazacyclopentadecin-6-yl)carbamate] | 5.01 to 35 | 35 to 620 | 
CC[C@@H]1C[C@H](C)CC/C=C\[C@@H]2C[C@@]2(C(=O)NS(=O)(=O)C2(C)CC2)NC(=O)[C@@H]2C[C@@H](Oc3nc(-c4ccc(OC(C)C)cn4)cc4cc(OC)ccc34)CN2C(=O)[C@H]1NC(=O)OC(C)(C)C [Compound 5481, tert-butyl ((2R,6S,7R,9R,13aS,14aR,16aS,Z)-7-ethyl-2-((3-(5-isopropoxypyridin-2-yl)-6-methoxyisoquinolin-1-yl)oxy)-9-methyl-14a-(((1-methylcyclopropyl)sulfonyl)carbamoyl)-5,16-dioxo-1,2,3,5,6,7,8,9,10,11,13a,14,14a,15,16,16a-hexadecahydrocyclopropa[e]pyrrolo[1,2-a][1,4]diazacyclopentadecin-6-yl)carbamate] | 1.01 to 5 | 1.01 to 5 | 
CCOc1cnc(O[C@@H]2C[C@H]3C(=O)N[C@]4(C(=O)NS(=O)(=O)C5(C)CC5)C[C@H]4/C=C\CC[C@@H](C)C[C@@H](C)[C@H](NC(=O)O[C@H](C)C(F)(F)F)C(=O)N3C2)c2ccccc12 [Compound 4066, (R)-1,1,1-trifluoropropan-2-yl (2R,6S,7R,9R,13aS,14aR,16aS,Z)-2-(4-ethoxyisoquinolin-1-yloxy)-7,9-dimethyl-14a-(1-methylcyclopropylsulfonylcarbamoyl)-5,16-dioxo-1,2,3,5,6,7,8,9,10,11,13a,14,14a,15,16,16a-hexadecahydrocyclopropa[e]pyrrolo[1,2-a][1,4]diazacyclopentadecin-6-ylcarbamate] | < 5.46 | < 5.46 | 
CC[C@@H]1C[C@H](C)CC/C=C\[C@@H]2C[C@@]2(C(=O)NS(=O)(=O)C2(C)CC2)NC(=O)[C@@H]2C[C@@H](Oc3ncc(Cl)c4ccc(OC)cc34)CN2C(=O)[C@H]1NC(=O)OC(C)(C)C [Compound 4381] | 1.01 to 5 | 0.51 to 1 | 
CC1CC/C=C\[C@@H]2C[C@@]2(C(=O)NS(=O)(=O)C2(CF)CC2)NC(=O)[C@@H]2C[C@@H](Oc3nccc4c5c(ccc34)OCCO5)CN2C(=O)[C@@H](NC(=O)OC(C)(C)C)[C@H](C)C1 (stereo in doubt) [Compound 5321, tert-butyl ((2R,6S,7R,9R,13aS,14aR,16aS,Z)-2-((2,3-dihydro-[1,4]dioxino[2,3-f]isoquinolin-7-yl)oxy)-14a-(((1-(fluoromethyl)cyclopropyl)sulfonyl)carbamoyl)-7,9-dimethyl-5,16-dioxo-1,2,3,5,6,7,8,9,10,11,13a,14,14a,15,16,16a-hexadecahydrocyclopropa[e]pyrrolo[1,2-a][1,4]diazacyclopentadecin-6-yl)carbamate] | < 5.46 | < 5.46 | 
COc1cnc(O[C@@H]2C[C@H]3C(=O)N[C@]4(C(=O)NS(=O)(=O)C5(CF)CC5)C[C@H]4CCCC[C@@H](C)C[C@@H](C)[C@H](NC(=O)NC(C)(C)C)C(=O)N3C2)c2ccccc12 [Compound 5120, (2R,6S,7R,9R,13aR,14aR,16aS)-6-(3-(tert-butyl)ureido)-N-((1-(fluoromethyl)cyclopropyl)sulfonyl)-2-((4-methoxyisoquinolin-1-yl)oxy)-7,9-dimethyl-5,16-dioxooctadecahydrocyclopropa[e]pyrrolo[1,2-a][1,4]diazacyclopentadecine-14a-carboxamide] | < 5.46 | < 5.46 | 
COc1cc2c(OC)cnc(O[C@@H]3C[C@H]4C(=O)N[C@]5(C(=O)NS(=O)(=O)C6CC6)C[C@H]5/C=C\CC[C@@H](C)C[C@@H](C)[C@H](NC(=O)OC(C)(C)C)C(=O)N4C3)c2cc1F [Compound 4074, tert-butyl (2R,6S,7R,9R,13aS,14aR,16aS,Z)-14a-(cyclopropylsulfonylcarbamoyl)-2-(7-fluoro-4,6-dimethoxyisoquinolin-1-yloxy)-7,9-dimethyl-5,16-dioxo-1,2,3,5,6,7,8,9,10,11,13a,14,14a,15,16,16a-hexadecahydrocyclopropa[e]pyrrolo[1,2-a][1,4]diazacyclopentadecin-6-ylcarbamate] | < 5.46 | < 5.46 | 
[2H]C([2H])([2H])C(C)(OC(=O)N[C@@H]1C(=O)N2C[C@H](Oc3nnc(OC)c4ccccc34)C[C@H]2C(=O)N[C@]2(C(=O)NS(=O)(=O)C3(C)CC3)C[C@H]2/C=C\CC[C@@H](C)C[C@H]1CC)C([2H])([2H])[2H] [Compound 5022] | < 5.46 | < 5.46 | 
COc1ccc2c(O[C@@H]3C[C@H]4C(=O)N[C@]5(C(=O)NS(=O)(=O)C6CC6)C[C@H]5/C=C\CC[C@@H](C)C[C@@H](C)[C@H](NC(=O)O[C@H](C)C(F)(F)F)C(=O)N4C3)nc(-c3ccc(OC(C)C)cn3)cc2c1 [Compound 5207, (R)-1,1,1-trifluoropropan-2-yl ((2R,6S,7R,9R,13aS,14aR,16aS,Z)-14a-((cyclopropylsulfonyl)carbamoyl)-2-((3-(5-isopropoxypyridin-2-yl)-6-methoxyisoquinolin-1-yl)oxy)-7,9-dimethyl-5,16-dioxo-1,2,3,5,6,7,8,9,10,11,13a,14,14a,15,16,16a-hexadecahydrocyclopropa[e]pyrrolo[1,2-a][1,4]diazacyclopentadecin-6-yl)carbamate] | < 5.46 | < 5.46 | 
C[C@H]1CC/C=C\[C@@H]2C[C@@]2(C(=O)NS(=O)(=O)C2(C)CC2)NC(=O)[C@@H]2C[C@@H](Oc3nccc4c5c(ccc34)N(C)CCO5)CN2C(=O)[C@@H](NC(=O)O[C@@H]2C[C@@H]3C[C@@H]3C2)[C@H](C)C1 [Compound 5299, (1R,3r,5S)-bicyclo[3.1.0]hexan-3-yl((2R,6S,7R,9S,13aS,14aR,16aS,Z)-7,9-dimethyl-2-((4-methyl-3,4-dihydro-2H-[1,4]oxazino[2,3-f]isoquinolin-7-yl)oxy)-14a-(((1-methylcyclopropyl)sulfonyl)carbamoyl)-5,16-dioxo-1,2,3,5,6,7,8,9,10,11,13a,14,14a,15,16,16a-hexadecahydrocyclopropa[e]pyrrolo[1,2-a][1,4]diazacyclopentadecin-6-yl)carbamate] | < 5.46 | < 5.46 | 
COc1ccc2c(O[C@@H]3C[C@H]4C(=O)N[C@]5(C(=O)NS(=O)(=O)C6(C)CC6)C[C@H]5/C=C\CC[C@H](C)C[C@@H](C)[C@H](NC(=O)OC(C)(C)C(F)(F)F)C(=O)N4C3)nc(N(C)C)nc2c1 [Compound 3003, 1,1,1-trifluoro-2-methylpropan-2-yl((2R,6S,7R,9S,13aS,14aR,16aS,Z)-2-((2-(dimethylamino)-7-methoxyquinazolin-4-yl)oxy)-7,9-dimethyl-14a-(((1-methylcyclopropyl)sulfonyl)carbamoyl)-5,16-dioxo-1,2,3,5,6,7,8,9,10,11,13a,14,14a,15,16,16a-hexadecahydrocyclopropa[e]pyrrolo[1,2-a][1,4]diazacyclopentadecin-6-yl)carbamate] |  |  | EC50 [1, 3]: < 5.46 nM; EC50 [2, 4]: < 5.46 nM
